US8802678B2, “Carbonylated (aza) cyclohexanes as dopamine D3 receptor ligands” (Bioprojet, priority 2006, dated 2014)

Question: For `COc1cc(OC)cc(N2CCN(CC[C@H]3CC[C@H](NC(=O)CCCC#N)CC3)CC2)c1` [Example 392, 4-Cyano-N-(4-{2-[4-(3,5-dimethoxyphenyl)piperazin-1-yl]ethyl}cyclohexyl)butanamide], which melting point is on record?
Answer: 147 °C

Question: For `N#CCCCC(=O)N[C@H]1CC[C@H](CCN2CCN(c3cccc(Cl)c3C#N)CC2)CC1` [Example 393, N-(4-{2-[4-(3-Chloro-2-cyanophenyl)piperazin-1-yl]ethyl}cyclohexyl)-4-cyanobutanamide], which melting point is on record?
Answer: 189 °C

Question: For `O=C(N[C@H]1CC[C@H](CCN2CCN(c3cccc(F)c3)CC2)CC1)C1=CCCCC1` [Example 394], which melting point is on record?
Answer: 195 °C

Question: Which melting point does the source give for `N#CCCCC(=O)N[C@H]1CC[C@H](CCN2CCN(c3cccc(F)c3)CC2)CC1` [Example 395, 4-Cyano-N-(4-{2-[4-(3-fluorophenyl)piperazin-1-yl]ethyl}cyclohexyl)butanamide] here?
Answer: 170 °C

Question: With `O=C(COc1ccccc1)N[C@H]1CC[C@H](CCN2CCN(c3cccc(F)c3)CC2)CC1` [Example 396, N-(4-{2-[4-(3-Fluorophenyl)piperazin-1-yl]ethyl}cyclohexyl)-2-phenoxyacetamide] as the compound, how does the melting point read?
Answer: 150 °C

Question: Which melting point does the source give for `NC(=O)CCC(=O)N[C@H]1CC[C@H](CCN2CCN(c3cccc(F)c3)CC2)CC1` [Example 397, N-(4-{2-[4-(3-Fluorophenyl)-piperazin-1-yl]ethyl}cyclohexyl)-succinamide] here?
Answer: 255 °C

Question: For `NC(=O)CCC(=O)N[C@H]1CC[C@@H](CCN2CCN(c3cccc(F)c3)CC2)CC1` [Example 398, N-(4-{2-[4-(3-Fluorophenyl)-piperazin-1-yl]ethyl}cyclohexyl)-succinamide], which melting point is on record?
Answer: 169 °C

Question: With `O=C(N[C@H]1CC[C@H](CCN2CCN(c3cccc(F)c3)CC2)CC1)C1=CCCC1` [Example 400, Cyclopent-1-enecarboxylic acid (4-{2-[4-(3-fluorophenyl)-piperazin-1-yl]ethyl}cyclohexyl) amide] as the compound, how does the melting point read?
Answer: 202 °C

Question: For `N#CCCCC(=O)N[C@H]1CC[C@H](CCN2CCN(c3ccc(F)cc3F)CC2)CC1` [Example 401, 4-Cyano-N-(4-{2-[4-(2,4-difluorophenyl)piperazin-1-yl]ethyl}cyclohexyl)butanamide], which melting point is on record?
Answer: 167 °C

Question: With `N#CCCC(=O)N[C@H]1CC[C@H](CCN2CCN(c3ccc(F)cc3F)CC2)CC1` [Example 403, 3-Cyano-N-(4-{2-[4-(2,4-difluorophenyl)piperazin-1-yl]ethyl}cyclohexyl)propanamide] as the compound, how does the melting point read?
Answer: 165 °C

Question: Which melting point does the source give for `N#CCCCC(=O)N[C@H]1CC[C@H](CCN2CCN(c3cc(C(F)(F)F)ccc3Cl)CC2)CC1` [Example 404, N-(4-{2-[4-(2-Chloro-5-trifluoromethylphenyl)piperazin-1-yl]ethyl}cyclohexyl)-4-cyanobutanamide] here?
Answer: 168 °C

Question: With `COc1ccc(C(F)(F)F)cc1N1CCN(CC[C@H]2CC[C@H](NC(=O)CCCC#N)CC2)CC1` [Example 405, 4-Cyano-N-(4-{2-[4-(2-methoxy-5-trifluoromethylphenyl)piperazin-1-yl]ethyl}cyclohexyl)butanamide] as the compound, how does the melting point read?
Answer: 136 °C

Question: Which melting point does the source give for `O=C(N[C@H]1CC[C@H](CCN2CCN(c3cccc(F)c3)CC2)CC1)C1=Cc2ccccc2C1` [Example 407, 1H-Indene-2-carboxylic acid (4-{2-[4-(3-fluorophenyl)piperazin-1-yl]ethyl}cyclohexyl) amide] here?
Answer: 242 °C

Question: With `O=C(N[C@H]1CC[C@H](CCN2CCN(c3cccc(F)c3)CC2)CC1)C1CC=CC1` [Example 408, Cyclopent-3-enecarboxylic acid (4-{2-[4-(3-fluorophenyl)-piperazin-1-yl]ethyl}cyclohexyl) amide] as the compound, how does the melting point read?
Answer: 215 °C

Question: For `O=C(CC(F)(F)F)N[C@H]1CC[C@H](CCN2CCN(c3cccc(F)c3)CC2)CC1` [Example 409, 3,3,3-Trifluoro-N-(4-{2-[4-(3-fluorophenyl)piperazin-1-yl]ethyl}cyclohexyl)propanamide], which melting point is on record?
Answer: 195 °C
